Values of other authors as cited in patent US7834258B2, “Dimer of chimeric recombinant binding domain-functional group fusion formed via disulfide-bond-bridge and the processes for producing the same” (priority 2003, dated 2010).

System: H2981 human lung adenocarcinoma cells

Row | Structure (SMILES) | cytotoxicity (H2981 cells, 200 uM concentration) | IC50 (H2981 human lung adenocarcinoma cells, read-out: ID50 (the source's name)) [µM]
1 | Nc1nc(=O)[nH]cc1F [5-FC, 5-Fluorocytosine] | no effect | –
2 | O=c1[nH]cc(F)c(=O)[nH]1 [5-FU, 5-Fluorouracil] | – | 20
